Assay results as given in ChEMBL document CHEMBL6074667, “Discovery and Optimization of First-in-Class Molecular Glue Degraders of the WIZ Transcription Factor for Fetal Hemoglobin Induction to Treat Sickle Cell Disease” (J Med Chem, 2024).
In brackets after ≈: the same amount, converted by molar mass.

Test system: not listed separately
Assay: Solubility of compound in potassium phosphate buffer at pH 6.8 incubated for 16 to 24 hrs by high-throughput Agilent Rapidfire-MS/MS analysis
Format: physicochemical
Settings: time 16-24 hrs

| Compound | solubility [µM] |
| --- | --- |
| CCN1C[C@H](C)C[C@@H](Oc2ccc3c(c2)CN(C2CCC(=O)NC2=O)C3=O)C1 (stereo in doubt; 10) | 380 (≈ 146 µg/mL) |

Test system: not listed separately
Assay: Apparent permeability across apical to basolateral side in low efflux MDCK cells at 10 uM incubated for 2 hrs by LC-MS analysis
Format: ADME, cell-based, Canis lupus familiaris
Settings: dog

| Compound | Papp A→B at 2 h, 10 µM [×10⁻⁶ cm/s] |
| --- | --- |
| CCN1C[C@H](C)C[C@@H](Oc2ccc3c(c2)CN(C2CCC(=O)NC2=O)C3=O)C1 (stereo in doubt; 10) | 0.5 |

Test system: not listed separately
Assay: Apparent permeability across apical to basolateral side in low efflux MDCK cells assessed as drug recovery at 10 uM incubated for 2 hrs by LC-MS analysis
Format: ADME, cell-based, Canis lupus familiaris
Settings: dog, read-out: Drug recovery

| Compound | recovery at 2 h, 10 µM [%] |
| --- | --- |
| CCN1C[C@H](C)C[C@@H](Oc2ccc3c(c2)CN(C2CCC(=O)NC2=O)C3=O)C1 (stereo in doubt; 10) | 84 |

Test system: not listed separately
Assay: Intrinsic clearance in mouse liver microsomes
Format: ADME, Microsome
Settings: read-out: CLH

| Compound | microsomal CLint [µL/min/mg] |
| --- | --- |
| CCN1C[C@H](C)C[C@@H](Oc2ccc3c(c2)CN(C2CCC(=O)NC2=O)C3=O)C1 (stereo in doubt; 10) | < 10 |

Test system: not listed separately
Assay: Intrinsic clearance in rat liver microsomes
Format: ADME, Microsome
Settings: read-out: CLH

| Compound | microsomal CLint [µL/min/mg] |
| --- | --- |
| CCN1C[C@H](C)C[C@@H](Oc2ccc3c(c2)CN(C2CCC(=O)NC2=O)C3=O)C1 (stereo in doubt; 10) | < 10 |

Test system: not listed separately
Assay: Intrinsic clearance in human liver microsomes
Format: ADME, Microsome
Settings: read-out: CLH

| Compound | microsomal CLint [µL/min/mg] |
| --- | --- |
| CCN1C[C@H](C)C[C@@H](Oc2ccc3c(c2)CN(C2CCC(=O)NC2=O)C3=O)C1 (stereo in doubt; 10) | < 10 |

Test system: not listed separately
Assay: Protein binding in mouse plasma
Format: ADME, cell-free
Settings: read-out: PPB (converted)

| Compound | fraction unbound |
| --- | --- |
| CCN1C[C@H](C)C[C@@H](Oc2ccc3c(c2)CN(C2CCC(=O)NC2=O)C3=O)C1 (stereo in doubt; 10) | > 0.8 |

Test system: not listed separately
Assay: Protein binding in rat plasma
Format: ADME, cell-free
Settings: read-out: PPB (converted)

| Compound | fraction unbound |
| --- | --- |
| CCN1C[C@H](C)C[C@@H](Oc2ccc3c(c2)CN(C2CCC(=O)NC2=O)C3=O)C1 (stereo in doubt; 10) | > 0.8 |

Test system: not listed separately
Assay: Protein binding in human plasma
Format: ADME, cell-free
Settings: read-out: PPB (converted)

| Compound | fraction unbound |
| --- | --- |
| CCN1C[C@H](C)C[C@@H](Oc2ccc3c(c2)CN(C2CCC(=O)NC2=O)C3=O)C1 (stereo in doubt; 10) | 0.76 |

Test system: not listed separately
Assay: Half-life in C57BL/6 mouse at 1 mg/kg, iv
Format: ADME, organism-based
Settings: in vivo

| Compound | half-life [h] |
| --- | --- |
| CCN1C[C@H](C)C[C@@H](Oc2ccc3c(c2)CN(C2CCC(=O)NC2=O)C3=O)C1 (stereo in doubt; 10) | 2.2 |

Test system: not listed separately
Assay: Clearance in C57BL/6 mouse at 1 mg/kg, iv
Format: ADME, organism-based
Settings: in vivo

| Compound | clearance [mL/min/kg] |
| --- | --- |
| CCN1C[C@H](C)C[C@@H](Oc2ccc3c(c2)CN(C2CCC(=O)NC2=O)C3=O)C1 (stereo in doubt; 10) | 29 |

Test system: not listed separately
Assay: Volume of distribution at steady state in C57BL/6 mouse at 1 mg/kg, iv
Format: ADME, organism-based
Settings: in vivo, read-out: Vdss

| Compound | Vd [L/kg] |
| --- | --- |
| CCN1C[C@H](C)C[C@@H](Oc2ccc3c(c2)CN(C2CCC(=O)NC2=O)C3=O)C1 (stereo in doubt; 10) | 2.8 |

Test system: not listed separately
Assay: AUClast in C57BL/6 mouse at 3 mg/kg, po
Format: ADME, organism-based
Settings: in vivo

| Compound | AUC(0-t) [µM·h] |
| --- | --- |
| CCN1C[C@H](C)C[C@@H](Oc2ccc3c(c2)CN(C2CCC(=O)NC2=O)C3=O)C1 (stereo in doubt; 10) | 1.12 |

Test system: not listed separately
Assay: Cmax in C57BL/6 mouse at 3 mg/kg, po
Format: ADME, organism-based
Settings: in vivo

| Compound | Cmax [nM] |
| --- | --- |
| CCN1C[C@H](C)C[C@@H](Oc2ccc3c(c2)CN(C2CCC(=O)NC2=O)C3=O)C1 (stereo in doubt; 10) | 224 |

Test system: not listed separately
Assay: Tmax in C57BL/6 mouse at 3 mg/kg, po or 1 mg/kg, iv
Format: ADME, organism-based
Settings: in vivo

| Compound | Tmax [h] |
| --- | --- |
| CCN1C[C@H](C)C[C@@H](Oc2ccc3c(c2)CN(C2CCC(=O)NC2=O)C3=O)C1 (stereo in doubt; 10) | 1.7 |

Test system: not listed separately
Assay: Bioavailability last in C57BL/6 mouse
Format: ADME, organism-based
Settings: in vivo

| Compound | bioavailability [%] |
| --- | --- |
| CCN1C[C@H](C)C[C@@H](Oc2ccc3c(c2)CN(C2CCC(=O)NC2=O)C3=O)C1 (stereo in doubt; 10) | 23 |

Molecular target: T1, Protein cereblon/Protein Wiz (Homo sapiens, UniProt Q96SW2+O95785)
T1 sequence (Q96SW2 whole entry): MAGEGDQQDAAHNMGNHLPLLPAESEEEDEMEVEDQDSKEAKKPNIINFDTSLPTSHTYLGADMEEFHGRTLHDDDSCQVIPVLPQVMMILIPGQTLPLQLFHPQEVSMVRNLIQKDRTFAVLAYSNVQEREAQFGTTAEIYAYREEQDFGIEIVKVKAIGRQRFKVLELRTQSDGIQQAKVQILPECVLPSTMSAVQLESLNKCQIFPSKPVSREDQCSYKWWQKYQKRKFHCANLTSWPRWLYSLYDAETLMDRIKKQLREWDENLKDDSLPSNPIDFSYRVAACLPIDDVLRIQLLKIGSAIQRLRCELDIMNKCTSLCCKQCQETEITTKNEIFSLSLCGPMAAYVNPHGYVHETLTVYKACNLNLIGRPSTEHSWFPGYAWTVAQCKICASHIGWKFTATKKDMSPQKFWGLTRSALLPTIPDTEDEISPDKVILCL
T1 sequence (O95785 whole entry): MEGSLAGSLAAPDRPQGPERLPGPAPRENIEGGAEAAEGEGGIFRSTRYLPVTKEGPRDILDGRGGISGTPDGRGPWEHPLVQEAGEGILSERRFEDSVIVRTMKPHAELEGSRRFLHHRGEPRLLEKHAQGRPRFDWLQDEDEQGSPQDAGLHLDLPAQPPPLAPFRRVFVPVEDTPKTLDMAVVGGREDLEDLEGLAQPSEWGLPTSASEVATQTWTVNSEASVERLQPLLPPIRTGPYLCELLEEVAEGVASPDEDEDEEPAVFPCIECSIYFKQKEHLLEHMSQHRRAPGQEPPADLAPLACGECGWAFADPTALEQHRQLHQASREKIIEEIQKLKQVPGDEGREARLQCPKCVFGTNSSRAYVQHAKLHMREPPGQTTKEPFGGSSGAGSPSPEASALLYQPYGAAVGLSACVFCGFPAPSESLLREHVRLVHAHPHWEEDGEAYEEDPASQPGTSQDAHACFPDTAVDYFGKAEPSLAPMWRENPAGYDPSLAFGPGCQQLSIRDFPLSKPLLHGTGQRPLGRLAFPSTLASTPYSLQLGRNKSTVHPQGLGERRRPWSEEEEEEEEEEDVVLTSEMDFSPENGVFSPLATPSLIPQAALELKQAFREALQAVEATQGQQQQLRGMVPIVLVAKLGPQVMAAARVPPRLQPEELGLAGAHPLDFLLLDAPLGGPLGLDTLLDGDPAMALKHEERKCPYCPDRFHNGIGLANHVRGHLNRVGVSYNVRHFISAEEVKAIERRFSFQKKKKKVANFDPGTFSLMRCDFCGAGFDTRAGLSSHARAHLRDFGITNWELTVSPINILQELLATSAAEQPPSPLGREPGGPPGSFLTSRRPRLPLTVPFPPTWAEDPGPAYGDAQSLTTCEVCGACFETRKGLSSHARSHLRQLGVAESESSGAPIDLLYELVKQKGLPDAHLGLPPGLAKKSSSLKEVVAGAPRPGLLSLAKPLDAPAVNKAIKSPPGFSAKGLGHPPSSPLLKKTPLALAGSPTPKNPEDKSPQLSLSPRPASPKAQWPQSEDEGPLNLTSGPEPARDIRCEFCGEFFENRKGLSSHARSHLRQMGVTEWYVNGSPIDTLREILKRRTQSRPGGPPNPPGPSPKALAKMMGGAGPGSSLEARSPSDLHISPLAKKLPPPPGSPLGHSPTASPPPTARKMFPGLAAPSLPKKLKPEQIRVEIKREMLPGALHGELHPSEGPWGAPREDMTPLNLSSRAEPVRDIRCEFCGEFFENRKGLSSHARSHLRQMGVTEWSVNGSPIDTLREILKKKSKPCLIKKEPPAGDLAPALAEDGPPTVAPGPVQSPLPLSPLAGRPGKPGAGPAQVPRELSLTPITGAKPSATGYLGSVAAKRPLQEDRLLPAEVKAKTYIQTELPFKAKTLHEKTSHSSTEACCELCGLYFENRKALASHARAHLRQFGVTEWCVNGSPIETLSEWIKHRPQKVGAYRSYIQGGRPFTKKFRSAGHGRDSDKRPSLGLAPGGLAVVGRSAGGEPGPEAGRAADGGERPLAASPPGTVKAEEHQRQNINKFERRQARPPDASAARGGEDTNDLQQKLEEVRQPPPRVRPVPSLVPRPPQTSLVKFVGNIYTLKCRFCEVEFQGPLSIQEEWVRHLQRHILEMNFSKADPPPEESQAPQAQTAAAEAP
Assay: Molecular glue activity at CRBN/HiBiT-tagged WIZ (unknown origin) expressed in HEK293T cells assessed as induction of WIZ degradation incubated for 18 hrs by Nano-Glo HiBiT-Lytic reagent based luminescence plate reader analysis
Format: cell-based
Settings: not given

| Compound | DC50 [nM] |
| --- | --- |
| CCN1C[C@H](C)C[C@@H](Oc2ccc3c(c2)CN(C2CCC(=O)NC2=O)C3=O)C1 (stereo in doubt; 10) | 3 |

Molecular target: T1, Protein cereblon/Protein Wiz
Assay: Molecular glue activity at CRBN/WIZ in human CD34-positive derived primary erythroblast cells assessed as induction of WIZ degradation measured after 24 hrs by flow cytometric analysis
Format: cell-based
Settings: not given

| Compound | DC50 [nM] |
| --- | --- |
| CCN1C[C@H](C)C[C@@H](Oc2ccc3c(c2)CN(C2CCC(=O)NC2=O)C3=O)C1 (stereo in doubt; 10) | 2 |

Molecular target: Protein cereblon/Protein Wiz (Homo sapiens, UniProt O95785+Q96SW2)
Sequence (Q96SW2 whole entry): as the sequence (Q96SW2 whole entry) above
Sequence (O95785 whole entry): as the sequence (O95785 whole entry) above
Assay: Molecular glue activity at CRBN/WIZ in human CD34-positive derived primary erythroblast cells assessed as increase in fetal hemoglobin positive cells in CD71+ CD235a+ subpopulation measured after 7 days by flow cytometric analysis
Format: cell-based
Settings: not given

| Compound | EC50 [nM] |
| --- | --- |
| CCN1C[C@H](C)C[C@@H](Oc2ccc3c(c2)CN(C2CCC(=O)NC2=O)C3=O)C1 (stereo in doubt; 10) | 40 |

Test system: not listed separately
Assay: Toxicity in immunocompromised naive NBSGW mouse xenografted with human CD34 positive HSPC cells assessed as effect on body weight at 0.01 to 1 mg/kg, po administered once daily for 21 days
Format: organism-based
Settings: in vivo, 504 h, dose 0.01-1 mg/kg, time 21 day

| Compound | Activity |
| --- | --- |
| CCN1C[C@H](C)C[C@@H](Oc2ccc3c(c2)CN(C2CCC(=O)NC2=O)C3=O)C1 (stereo in doubt; 10) | Non-toxic |
